The values below come from publication PMC12734683 (Chemistry (Weinheim an Der Bergstrasse, Germany), 2025).

Assay [1] concerns d(5′‐CGCGAATTCGCG‐3′)2 (DNA, duplex) CGCGAATTCGCG
Briefly: ethidium bromide displacement fluorescence quenching, double-log plot. Conditions: 100 mM phosphate (cation not given); pH 7.0, 298 K; 20 μM DNA, 5.2 μM ethidium bromide displaced; apparent.

Assay [2] shares this test system. Kind of assay: 1H NMR titration. Conditions: 100 mM phosphate (cation not given), H2O:D2O 9:1, pH 7.0, 298 K, r = 0.5-2.
A further assay deals with A2780cis‐res. Briefly: Cell growth assay (IncuCyte Zoom), cytotoxicity. Format: cell-based, human. How it is done: (§1) The human breast adenocarcinoma cell line MCF-7 and the mouse embryonic fibroblast cell line NIH-3T3 were cultured in high- glucose Dulbecco’s modified Eagle’s medium (DMEM) supplemented with 10% fetal bovine serum and 1% penicillin/ streptomycin. The human ovarian cancer cell line A2780 and its cisplatin resistant derivative (A2780cis-res) were maintained in RPMI-1640 medium supplemented with 10% fetal bovine serum and 1% penicillin/streptomycin. All cell lines were routinely passaged every 2 – 3 days, and incubated at 37 °C in a humidified atmosphere containing 5% CO2.
(§2) Cell growth and the cytotoxic effects of the complexes were monitored using the IncuCyte Zoom system and software(Essen BioScience, Hertfordshire, United Kingdom), as previously described^84. The IC50 values of cisplatin and of the complexes were determined by fitting a log(concentration) versus normalized response curve using GraphPad Prism, version 8.01.

The subject of the next assay is A2780. Briefly: Cell growth assay (IncuCyte Zoom), cytotoxicity. Type of assay: cell-based, human. The method, then:
as §1, §2

The next assay has as its system MCF‐7. Kind of assay: Cell growth assay (IncuCyte Zoom), cytotoxicity. Type of assay: cell-based, human. How it is done:
as §1, §2

In the next assay the test system is NIH-3T3. Briefly: Cell growth assay (IncuCyte Zoom), cytotoxicity to normal fibroblasts. Type of assay: cell-based, mouse. Conditions: NIHT‐3T3 normal fibroblasts. How it is done: as §1, §2

For the compound `Cc1ccc(C(C)C)cc1.Cc1ccc(C(C)C)cc1.[Ru+2].[Ru+2].[c-]1cccc2ccc3cccnc3c12.[c-]1cccc2ccc3cccnc3c12.c1cc(-c2ccncc2)ccn1`, the K b in assay [1] was 807.6 ± 19.9 × 10^3 M^-1.
Take `Cc1ccc(C(C)C)cc1.Cc1ccc(C(C)C)cc1.[Ru+2].[Ru+2].[c-]1cccc2ccc3cccnc3c12.[c-]1cccc2ccc3cccnc3c12.c1cc(CCCc2ccncc2)ccn1`: in assay [1], the K b is reported as 602.8 ± 76.1 × 10^3 M^-1.
Still for that read-out and setting: the result for `Cc1ccc(C(C)C)cc1.Cc1ccc(C(C)C)cc1.[Ru+2].[Ru+2].[c-]1cccc2ccc3cccnc3c12.[c-]1cccc2ccc3cccnc3c12.c1cc(CCc2ccncc2)ccn1` reads 298.4 ± 4.3 × 10^3 M^-1.
On to `Cc1ccc(C(C)C)cc1.Cc1ccc(C(C)C)cc1.[Ru+2].[Ru+2].[c-]1cccc2ccc3cccnc3c12.c1cc(-c2ccncc2)ccn1.c1cnc2c(c1)ccc1cccnc12`, for which, in assay [2] (minor-groove intercalation), the binding result is given as “yes”. The K b in assay [1] is listed as 5.59 ± 0.21 × 10^3 M^-1.
Take `Cc1ccc(C(C)C)cc1.Cc1ccc(C(C)C)cc1.[Ru+2].[Ru+2].[c-]1cccc2ccc3cccnc3c12.c1cc(CCCc2ccncc2)ccn1.c1cnc2c(c1)ccc1cccnc12`: the binding entry in assay [2] (groove binding) is on record as “yes”. Moreover, the K b in assay [1] is 6.70 ± 0.58 × 10^3 M^-1.
For `Cc1ccc(C(C)C)cc1.Cc1ccc(C(C)C)cc1.[Ru+2].[Ru+2].[c-]1cccc2ccc3cccnc3c12.c1cc(CCc2ccncc2)ccn1.c1cnc2c(c1)ccc1cccnc12`, the binding entry in assay [2] (groove binding at duplex ends) is “yes”. The K b in assay [1] is reported as 28.51 ± 0.97 × 10^3 M^-1.
With `N.N.[Cl][Pt][Cl]` [cisplatin, reference compound], in the assay with A2780cis‐res, the “Resistant factor IC50 (A2780cisR)/IC50(A2780)” value was 7.3. The concentration for half-maximal inhibition (IC50) stood at 18.4 ± 1.59 µM with A2780cis‐res (A2780cis‐res cells), 2.54 ± 0.11 µM with A2780 (A2780 cells), 14.6 ± 1.25 µM with MCF‐7 (MCF‐7 cells) and 3.02 ± 0.36 µM with NIH-3T3. Moreover, the “Selectivity index IC50(NIHT‐3T3)/IC50(A2780cis‐res)” value in the assay with A2780cis‐res (third of three values in the cell) is reported as 0.2. Also, the “Selectivity index IC50(NIHT‐3T3)/IC50(A2780)” value in the assay with A2780 worked out at 0.2. Also, the “Selectivity index IC50(NIHT‐3T3)/IC50(MCF‐7)” value in the assay with MCF‐7 (first of three values in the cell) was 1.2.

The IC50 is the concentration at which inhibition is half-maximal.
